Key:
[1] = tested on: Human immunodeficiency virus 1; assay: Antiviral activity against drug-resistant HIV-1 K103 N mutant infected in human MT4 cells assessed as reduction in virus-induced cytopathic effect incubated for 5 days by MTT assay; type: functional, organism-based; settings: Human immunodeficiency virus 1, K103 N mutant, MT4, 120 h
[2] = tested on: Human immunodeficiency virus 1; assay: Antiviral activity against drug-resistant HIV-1 Y188L mutant infected in human MT4 cells assessed as reduction in virus-induced cytopathic effect incubated for 5 days by MTT assay; type: functional, organism-based; settings: Human immunodeficiency virus 1, Y188L mutant, MT4, 120 h
Cytochrome P450 2C19 = Cytochrome P450 2C19 (Homo sapiens, UniProt P33261); assay: Inhibition of CYP2C19 in human liver microsomes using s-mephenytoin as substrate incubated for 15 to 40 mins in presence of NADPH; type: ADME, Microsome
Cytochrome P450 3A4 = Cytochrome P450 3A4 (Homo sapiens, UniProt P08684); assay: Inhibition of CYP3A4M in human liver microsomes using midazolam as substrate incubated for 15 to 40 mins in presence of NADPH; type: ADME, Microsome
[3] = Tmax in Sprague-Dawley rat at 10 mg/kg,po measured upto 24 hrs by LC-MS/MS analysis; type: ADME, organism-based; settings: in vivo
[4] = Cmax in Sprague-Dawley rat at 10 mg/kg,po measured upto 24 hrs by LC-MS/MS analysis; type: ADME, organism-based; design: dose 10 mg/kg, time < 24 hrs, route po; settings: in vivo
[5] = C0 in Sprague-Dawley rat at 1 mg/kg,iv measured upto 24 hrs by LC-MS/MS analysis; type: ADME, organism-based; settings: in vivo
[6] = Apparent volume of distribution in Sprague-Dawley rat at 1 mg/kg,iv measured upto 24 hrs by LC-MS/MS analysis; type: ADME, organism-based; settings: in vivo, read-out: Vz
[7] = Clearance in Sprague-Dawley rat at 10 mg/kg,po measured upto 24 hrs by LC-MS/MS analysis; type: ADME, organism-based; settings: in vivo
[8] = Clearance in Sprague-Dawley rat at 1 mg/kg,iv measured upto 24 hrs by LC-MS/MS analysis; type: ADME, organism-based; settings: in vivo
[9] = MRT(0 to t) in Sprague-Dawley rat at 1 mg/kg,iv measured upto 24 hrs by LC-MS/MS analysis; type: ADME, organism-based; settings: in vivo
[10] = MRT (0 to infinity) in Sprague-Dawley rat at 10 mg/kg,po measured upto 24 hrs by LC-MS/MS analysis; type: ADME, organism-based; settings: in vivo
[11] = Acute toxicity in mouse assessed as body weight change at 1 g/Kg,IG monitored for 2 weeks; settings: in vivo, po, 1000 mg/kg, 336 h
[12] = Acute toxicity in healthy mouse assessed as brain damage at 1 g/Kg,IG monitored for 2 weeks by HE staining based assay; type: tissue-based; settings: in vivo, po, 1000 mg/kg, 336 h
[13] = Acute toxicity in healthy mouse assessed as lung damage at 1 g/Kg,IG monitored for 2 weeks by HE staining based assay; type: tissue-based; settings: in vivo, po, 1000 mg/kg, 336 h
[14] = Fold resistance, ratio of EC50 for antiviral activity against drug-resistant HIV-1 K103 N mutant infected in human MT4 cells to EC50 for antiviral activity against […] HIV-1 infected in human MT4 cells; type: functional
[15] = Fold resistance, ratio of EC50 for antiviral activity against drug-resistant HIV-1 Y188L mutant infected in human MT4 cells to EC50 for antiviral activity against […] HIV-1 infected in human MT4 cells; type: functional
[16] = Fold resistance, ratio of EC50 for antiviral activity against drug-resistant HIV-1 E138K mutant infected in human MT4 cells to EC50 for antiviral activity against […] HIV-1 infected in human MT4 cells; type: functional

Chain of Cytochrome P450 3A4 (P08684 whole entry): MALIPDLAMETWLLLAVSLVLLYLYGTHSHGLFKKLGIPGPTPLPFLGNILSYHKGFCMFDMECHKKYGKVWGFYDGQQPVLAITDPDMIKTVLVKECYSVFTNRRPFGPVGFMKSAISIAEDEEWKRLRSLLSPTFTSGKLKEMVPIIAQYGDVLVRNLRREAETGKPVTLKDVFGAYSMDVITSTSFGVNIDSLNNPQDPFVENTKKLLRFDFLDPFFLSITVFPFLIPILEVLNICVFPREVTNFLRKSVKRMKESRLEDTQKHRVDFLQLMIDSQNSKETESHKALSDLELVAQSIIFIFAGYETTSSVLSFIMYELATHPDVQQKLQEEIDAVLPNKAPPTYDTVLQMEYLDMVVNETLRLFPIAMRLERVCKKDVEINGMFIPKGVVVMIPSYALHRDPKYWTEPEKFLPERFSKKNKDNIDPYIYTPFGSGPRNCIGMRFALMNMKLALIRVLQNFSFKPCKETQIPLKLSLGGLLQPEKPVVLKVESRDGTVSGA
Chain of Cytochrome P450 2C19 (P33261 whole entry): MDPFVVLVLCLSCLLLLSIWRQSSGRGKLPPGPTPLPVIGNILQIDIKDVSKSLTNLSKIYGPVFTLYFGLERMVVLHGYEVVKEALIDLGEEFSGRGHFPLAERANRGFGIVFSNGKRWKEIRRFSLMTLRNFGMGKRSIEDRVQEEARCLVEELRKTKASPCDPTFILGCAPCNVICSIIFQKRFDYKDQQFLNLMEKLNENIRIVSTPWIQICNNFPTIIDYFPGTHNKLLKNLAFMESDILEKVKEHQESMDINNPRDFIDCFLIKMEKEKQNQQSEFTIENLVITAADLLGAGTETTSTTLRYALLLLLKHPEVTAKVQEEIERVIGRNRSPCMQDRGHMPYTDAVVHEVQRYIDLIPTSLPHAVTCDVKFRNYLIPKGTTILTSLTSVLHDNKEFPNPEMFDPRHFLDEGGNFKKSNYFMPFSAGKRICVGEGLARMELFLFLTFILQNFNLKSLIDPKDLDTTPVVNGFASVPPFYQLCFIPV

Compound: Cc1c(C(C#N)c2c(F)cccc2F)nc(SC(C)C)[nH]c1=O (stereo not drawn)
- EC50 [1]: 3.39 µM
- EC50 [2]: 69 µM
- IC50 (Cytochrome P450 2C19): 35.3 µM
- IC50 (Cytochrome P450 3A4): > 50 µM
- Tmax [3]: 3.5 h
- Cmax [4]: 15300 ng/mL
- C0 at 24 h [5]: 9310 ng/mL
- Vd [6]: 0.764 L/kg
- CL/F [7]: 1.24 mL/min/kg
- clearance [8]: 2.13 mL/min/kg
- MRT last at 24 h [9]: 2.25 h
- MRT inf [10]: 6.82 h
- Activity [11]: Non-Toxic
- Activity [12]: Non-Toxic
- Activity [13]: Non-Toxic
- Ratio EC50 [14]: 163
- Ratio EC50 [15]: 3319
- Ratio EC50 [16]: 2
